Experimental data published in patent US4093626A, “β-Lactam antibiotics” (Beecham Group Limited, priority 1976, dated 1978).

Columns and labels:
[1] = molecular target: β-lactamase enzyme produced by Staphylococcus aureus Russell (Staphylococcus aureus, UniProt P00807); assay: Inhibition of the β-lactamase from Staphylococcus aureus Russell (I50); type: biochemical; settings: β-lactamase from Staph. aureus Russell
Description: Inhibition of the β-lactamase from Staphylococcus aureus Russell
I50 values were determined using the process described in Belgium Pat. No. 827,926.

Staph. aureus Russell [2] = assay: Antibacterial synergy with ampicillin against Staphylococcus aureus Russell (M.I.C. of ampicillin in presence of compound); type: cell-based; settings: inhibitor conc. 20 μg/ml
From the text: (§1) Antibacterial activity and antibacterial synergy with ampicillin against Staphylococcus aureus Russell

Acute toxicity in mice = type: in vivo
Description: The compound (mixture of 2 isomers) from Example 6.2 was tested for acute toxicity in mice as described below.
Mice: CDI, female, 18 - 22 gm. 5 mice per group
The compound was injected in aqueous dimethylformamide (≤15% DMF) at 0.4 ml/20 g for the 2000 mg./Kg. dosage and at 0.2 ml/20 g. for the other dosages.

Staph. aureus Russell [3] = assay: Antibacterial activity (M.I.C.) against Staphylococcus aureus Russell; type: cell-based; settings: compound alone
From the text: as §1

Chain of β-lactamase enzyme produced by Staphylococcus aureus Russell (P00807 25-281): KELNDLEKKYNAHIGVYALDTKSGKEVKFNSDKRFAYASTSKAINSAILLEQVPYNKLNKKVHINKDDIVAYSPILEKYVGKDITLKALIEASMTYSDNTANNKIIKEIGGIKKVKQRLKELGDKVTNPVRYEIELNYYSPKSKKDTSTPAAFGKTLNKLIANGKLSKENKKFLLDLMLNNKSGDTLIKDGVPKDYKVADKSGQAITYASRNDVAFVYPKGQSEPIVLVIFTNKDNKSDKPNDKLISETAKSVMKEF

Compound: O=C1C[C@@H]2O[C@@H](CBr)CN12 (racemic) [Example 2.2, (3RS, 5SR)-3-Bromomethyl-4-oxa-1-azabicyclo[3.2.0]heptan-7-one]
- IC50 [1]: 14.6 µM

Compound: O=C1C[C@@H]2O[C@@H](CSc3ccccc3)CN12 (racemic) [Example 7, (3RS, 5SR)-3-Phenylthiomethyl-4-oxa-1-azabicyclo[3.2.0]heptan-7-one]
- IC50 [1]: 10.2 µM

Compound: O=C(OC[C@H]1CN2C(=O)C[C@@H]2O1)c1ccc([N+](=O)[O-])cc1 (racemic) [Example 14, (3RS, 5SR)-3-p-Nitrobenzoyloxymethyl-4-oxa-1-azabicyclo[3.2.0]heptan-7-one]
- IC50 [1]: 15.1 µM

Compound: O=C1C[C@@H]2O[C@@H](COc3ccc([N+](=O)[O-])cc3)CN12 (racemic) [Example 15, (3RS, 5SR)-3-p-Nitrophenoxymethyl-4-oxa-1-azabicyclo[3.2.0]heptan-7-one]
- IC50 [1]: 16.7 µM

Compound: O=C1C[C@@H]2O[C@@H](CS(=O)(=O)c3ccc([N+](=O)[O-])cc3)CN12 (relative stereo) [Example 0-20]
- IC50 [1]: 5.44 µM

Compound: O=C(Nc1ccccc1)OC[C@H]1CN2C(=O)C[C@@H]2O1 (relative stereo) [Example 22, (3RS, 5SR)-3-(N-Phenylcarbamoyloxymethyl)-4-oxa-1-azabicyclo[3.2.0]heptan-7-one]
- IC50 [1]: 9.15 µM

Compound: O=C1C[C@@H]2O[C@@H](C[S+]([O-])c3ccc([N+](=O)[O-])cc3)CN12 (single isomer, unassigned) [Example 20 (isomer I), (3RS, 5SR)-3-p-Nitrophenylsulphinylmethyl-4-oxa-1-azabicyclo[3.2.0] heptan-7-one]
- IC50 [1]: 2.7 µM

Compound: (3RS, 5RS)- and (3RS, 5SR)-3-(2-Bromoethyl)-4-oxa-1-azabicyclo[3.2.0]heptan-7-one [Example 6.2]
- M.I.C. Ampicillin (Staph. aureus Russell [2]): 0.4 µg/mL
- Number of mice alive (Acute toxicity in mice; 250 mg./Kg. subcutaneous, Day 2): 5/5
- Number of mice alive (Acute toxicity in mice; 250 mg./Kg. subcutaneous, Day 3): 5/5
- Number of mice alive (Acute toxicity in mice; 250 mg./Kg. subcutaneous, Days 0 and 1): 5/5
- Number of mice alive (Acute toxicity in mice; 250 mg./Kg. subcutaneous, Days 4 to 7): 5/5
- Number of mice alive (Acute toxicity in mice; 500 mg./Kg. subcutaneous, Day 2): 5/5
- Number of mice alive (Acute toxicity in mice; 500 mg./Kg. subcutaneous, Day 3): 5/5
- Number of mice alive (Acute toxicity in mice; 500 mg./Kg. subcutaneous, Days 0 and 1): 5/5
- Number of mice alive (Acute toxicity in mice; 500 mg./Kg. subcutaneous, Days 4 to 7): 5/5
- Number of mice alive (Acute toxicity in mice; 1000 mg./Kg. subcutaneous, Day 2): 5/5
- Number of mice alive (Acute toxicity in mice; 1000 mg./Kg. subcutaneous, Day 3): 5/5
- Number of mice alive (Acute toxicity in mice; 1000 mg./Kg. subcutaneous, Days 0 and 1): 5/5
- Number of mice alive (Acute toxicity in mice; 1000 mg./Kg. subcutaneous, Days 4 to 7): 5/5
- Number of mice alive (Acute toxicity in mice; 2000 mg./Kg. subcutaneous, Day 2): 3/5
- Number of mice alive (Acute toxicity in mice; 2000 mg./Kg. subcutaneous, Day 3): 2/5
- Number of mice alive (Acute toxicity in mice; 2000 mg./Kg. subcutaneous, Days 0 and 1): 5/5
- Number of mice alive (Acute toxicity in mice; 2000 mg./Kg. subcutaneous, Days 4 to 7): 2/5
- Survival and weight gain of remaining mice (Acute toxicity in mice; 2000 mg./Kg. subcutaneous, end of observation period (7 days)): the other two remained alive and had gained weight
- Deaths (Acute toxicity in mice; 2000 mg./Kg. subcutaneous, within 3 days): three out of the five mice were dead
- Survival and weight gain over the observation period (Acute toxicity in mice; dosages up to 100 mg./Kg. subcutaneous, 7 days): all mice remained alive and gained in weight
- M.I.C. (Staph. aureus Russell [3]): 500 µg/mL
